Assay [1] concerns the target T1, Human PDGFRα, cytoplasmic domain (GST-PDGFRα) (Homo sapiens, UniProt P16234).
T1 construct: made in house
The experiment in a line: Human PDGFRα biochemical inhibition assay (off-chip Mobility Shift Assay).

Assay [2] addresses T2, Human PDGFRβ, cytoplasmic domain (GST-PDGFRβ) (Homo sapiens, UniProt P09619).
T2 construct: made in house
In words: Human PDGFRβ biochemical inhibition assay (off-chip Mobility Shift Assay). A digest of the protocol:
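GST-tagged cytoplasmic domain (aa 557-1106) from baculovirus was incubated 1 h at room temperature with compound, CSKtide, ATP at Km and Mg²⁺ in HEPES buffer, pH 7.5. Phosphorylated and unphosphorylated peptide were separated by off-chip mobility shift, and the product ratio P/(P+S) gave percent inhibition.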

pIC50: −log10 of the molar value.

As usually defined, the pIC50 is −log10 of the IC50, conventionally taken in molar units.

T2 sequence (P09619 with tags, fused parts or gaps): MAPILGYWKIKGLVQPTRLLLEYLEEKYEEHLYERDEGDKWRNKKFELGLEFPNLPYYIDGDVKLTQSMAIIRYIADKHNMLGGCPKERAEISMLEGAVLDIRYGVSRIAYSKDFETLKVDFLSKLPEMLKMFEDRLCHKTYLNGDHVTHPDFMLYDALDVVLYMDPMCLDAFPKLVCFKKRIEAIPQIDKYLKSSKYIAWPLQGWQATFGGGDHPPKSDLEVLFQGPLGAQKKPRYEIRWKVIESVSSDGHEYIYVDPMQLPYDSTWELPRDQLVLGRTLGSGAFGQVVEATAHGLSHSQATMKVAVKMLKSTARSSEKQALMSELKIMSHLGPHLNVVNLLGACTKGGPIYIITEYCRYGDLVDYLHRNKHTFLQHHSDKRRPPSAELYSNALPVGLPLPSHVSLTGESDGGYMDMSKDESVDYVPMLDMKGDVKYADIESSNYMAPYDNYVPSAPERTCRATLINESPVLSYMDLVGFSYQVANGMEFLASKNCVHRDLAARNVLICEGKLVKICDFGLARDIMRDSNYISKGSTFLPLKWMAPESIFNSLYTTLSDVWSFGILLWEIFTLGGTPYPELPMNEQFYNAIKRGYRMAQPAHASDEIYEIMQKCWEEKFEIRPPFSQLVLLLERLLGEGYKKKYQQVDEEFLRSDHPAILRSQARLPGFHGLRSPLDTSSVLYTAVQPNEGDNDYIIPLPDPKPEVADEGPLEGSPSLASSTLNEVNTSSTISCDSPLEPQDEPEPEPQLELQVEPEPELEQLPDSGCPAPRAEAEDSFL
T1 sequence (P16234 550-1089 T674I): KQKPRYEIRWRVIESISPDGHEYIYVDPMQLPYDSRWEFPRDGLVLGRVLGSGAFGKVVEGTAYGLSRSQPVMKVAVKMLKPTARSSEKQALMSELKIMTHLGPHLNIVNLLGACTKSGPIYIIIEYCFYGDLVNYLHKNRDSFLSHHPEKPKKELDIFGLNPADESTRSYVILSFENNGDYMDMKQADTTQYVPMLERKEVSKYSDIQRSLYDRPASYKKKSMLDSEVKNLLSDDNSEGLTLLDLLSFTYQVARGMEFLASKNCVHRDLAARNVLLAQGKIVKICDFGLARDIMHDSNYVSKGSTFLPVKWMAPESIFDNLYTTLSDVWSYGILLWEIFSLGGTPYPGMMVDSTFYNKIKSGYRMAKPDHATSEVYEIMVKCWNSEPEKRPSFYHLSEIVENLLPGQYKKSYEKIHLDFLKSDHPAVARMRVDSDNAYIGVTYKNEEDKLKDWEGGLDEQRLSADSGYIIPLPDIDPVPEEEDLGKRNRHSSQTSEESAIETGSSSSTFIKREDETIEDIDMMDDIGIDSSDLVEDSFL

`CCn1cc2ncc(N[C@@H](C)c3cccc(NC(=O)c4ccc(C(F)(F)F)cc4)c3)nc2n1` [Compound 453, (S)-N-(3-(1-((2-ethyl-2H-pyrazolo[3,4-b]pyrazin-6-yl)amino)ethyl)phenyl)-4-(trifluoromethyl)benzamide]: the negative-log IC50 (pIC50) in assay [1] and in assay [2] was greater than 6.52 throughout.

Turning to `Cc1cncc(C(=O)Nc2cccc([C@H](C)Nc3cnn4ccc(-c5cnn(C)c5)cc34)c2)c1` [Compound 745, (S)-5-methyl-N-(3-(1-((5-(1-methyl-1H-pyrazol-4-yl)pyrazolo[1,5-a]pyridin-3-yl)amino)ethyl)phenyl) nicotinamide], the pIC50 in assay [1] and in assay [2] was no more than 6.00 in each case.

Consider `Cc1cncc(C(=O)Nc2cccc([C@H](C)Nc3cnc4cc(C)sc4c3)c2)c1` [Compound 18, (S)-5-methyl-N-(3-(1-((2-methylthieno[3,2-b]pyridin-6-yl)amino)ethyl)phenyl)nicotinamide], for which the pIC50 in assay [1] and in assay [2] was greater than 6.52 each time.

Turning to `CCNc1ncc(C(=O)Nc2ccc(C)c([C@H](C)Nc3cnc4cn(CC)nc4n3)c2)cc1C` [Compound 513, (S)-N-(3-(1-((2-ethyl-2H-pyrazolo[3,4-b]pyrazin-6-yl)amino)ethyl)-4-methylphenyl)-6-(ethylamino)-5-methylnicotinamide], the pIC50 in assay [1] and in assay [2] was greater than 6.52 throughout.

Take `CCn1cc2ncc(N[C@@H](C)c3cc(NC(=O)Cc4cnc(C5CC5)c(F)c4)ccc3F)nc2n1` [Compound 691, (S)-2-(6-cyclopropyl-5-fluoropyridin-3-yl)-N-(3-(1-((2-ethyl-2H-pyrazolo[3,4-b]pyrazin-6-yl)amino)ethyl)-4-fluorophenyl)acetamide]: the values for the negative logarithm of the IC50 (pIC50) in assay [1] and in assay [2] were greater than 6.52 and no more than 6.00, respectively.

On to `CCn1cc2ncc(N[C@@H](C)c3cccc(NC(=O)c4ccc5c(c4)CN(C)C5)c3)nc2n1` [Compound 449, (S)-N-(3-(1-((2-ethyl-2H-pyrazolo[3,4-b]pyrazin-6-yl)amino)ethyl)phenyl)-2-methylisoindoline-5-carboxamide], for which the pIC50 is 6.00 to 6.52 in assay [1] and no more than 6.00 in assay [2].

Regarding `Cc1c[nH]c2ncc(N[C@@H](C)c3cccc(NC(=O)c4ccc(C(F)(F)F)nc4)c3)nc12` [Compound 557, (S)-N-(3-(1-((7-methyl-5H-pyrrolo[2,3-b]pyrazin-2-yl)amino)ethyl)phenyl)-6-(trifluoromethyl)nicotinamide], the pIC50 in assay [1] and in assay [2] was greater than 6.52 each time.

`C[C@H](Nc1cnc2cnn(C)c2n1)c1cccc(NC(=O)c2ccc(Cl)c(F)c2)c1` [Compound 191, (S)-4-chloro-3-fluoro-N-(3-(1-((1-methyl-1H-pyrazolo[3,4-b]pyrazin-6-yl)amino)ethyl)phenyl)benzamide]: the pIC50 in assay [1] and in assay [2] was greater than 6.52 each time.

On to `CCn1cc2ncc(N[C@@H](C)c3cc(NC(=O)Cc4cc(CN5CCCC5)c(C)cn4)ccc3C)nc2n1` [Compound 727, (S)-N-(3-(1-((2-ethyl-2H-pyrazolo[3,4-b]pyrazin-6-yl)amino)ethyl)-4-methylphenyl)-2-(5-methyl-4-(pyrrolidin-1-ylmethyl)pyridin-2-yl)acetamide], for which the pIC50 in assay [1] and in assay [2] was no more than 6.00 throughout.

In the case of `CCn1cc(C(=O)Nc2ccc(F)c([C@H](C)Nc3cnc4cn(CC)nc4n3)c2)cn1` [Compound 310, (S)-1-ethyl-N-(3-(1-((2-ethyl-2H-pyrazolo[3,4-b]pyrazin-6-yl)amino)ethyl)-4-fluorophenyl)-1H-pyrazole-4-carboxamide], the pIC50 in assay [1] and in assay [2] was greater than 6.52 each time.

As to `CC(C)COc1ncc(C(=O)Nc2cccc([C@H](C)Nc3cnc4cnn(C)c4n3)c2)cc1Cl` [Compound 262, (S)-5-chloro-6-isobutoxy-N-(3-(1-((1-methyl-1H-pyrazolo[3,4-b]pyrazin-6-yl)amino)ethyl)phenyl)nicotinamide], the pIC50 in assay [1] and in assay [2] was greater than 6.52 in each case.

In the case of `C[C@H](Nc1cnc2[nH]ccc2n1)c1cc(NC(=O)c2ccc(OC(F)F)nc2)ccc1F` [Compound 596, (S)-N-(3-(1-((5H-pyrrolo[2,3-b]pyrazin-2-yl)amino)ethyl)-4-fluorophenyl)-6-(difluoromethoxy)nicotinamide], the pIC50 in assay [1] and in assay [2] was greater than 6.52 in each case.

Regarding `CCn1cc2ncc(N[C@@H](C)c3cccc(NC(=O)Nc4ccc(OC(F)(F)F)nc4)c3)nc2n1` [Compound 407, (S)-1-(3-(1-((2-ethyl-2H-pyrazolo[3,4-b]pyrazin-6-yl)amino)ethyl)phenyl)-3-(6-(trifluoromethoxy)pyridin-3-yl) urea], the pIC50 in assay [1] and in assay [2] was greater than 6.52 in each case.

With `CCn1cc2ncc(N[C@@H](C)c3cccc(NC(=O)c4ccc(C(F)F)s4)c3)nc2n1` [Compound 292, (S)-5-(difluoromethyl)-N-(3-(1-((2-ethyl-2H-pyrazolo[3,4-b]pyrazin-6-yl)amino)ethyl)phenyl)thiophene-2-carboxamide], the pIC50 in assay [1] and in assay [2] was greater than 6.52 each time.

As to `CCn1cc2ncc(N[C@@H](C)c3cccc(NC(=O)c4cnc(OC)c(C)c4)c3)nc2n1` [Compound 290, (S)-N-(3-(1-((2-ethyl-2H-pyrazolo[3,4-b]pyrazin-6-yl)amino)ethyl)phenyl)-6-methoxy-5-methylnicotinamide], the negative-log IC50 (pIC50) in assay [1] and in assay [2] was greater than 6.52 throughout.

Take `C[C@H](Nc1cnc2cnn(C)c2n1)c1cccc(NC(=O)c2ccc3c(c2)SCCN3)c1` [Compound 79, (S)-N-(3-(1-((1-methyl-1H-pyrazolo[3,4-d]pyrazin-6-yl)amino)ethyl)phenyl)-3,4-dihydro-2H-benzo[b] [1,4]thiazine-7-carboxamide]: the pIC50 in assay [1] and in assay [2] was greater than 6.52 throughout.

As to `C[C@H](Nc1cnc2cnn(C)c2n1)c1cccc(NC(=O)c2cnc3c(c2)OCCO3)c1` [Compound 69, (S)-N-(3-(1-((1-methyl-1H-pyrazolo[3,4-b]pyrazin-6-yl)amino)ethyl)phenyl)-2,3-dihydro-[1,4]dioxino[2,3-b] pyridine-7-carboxamide], the pIC50 in assay [1] and in assay [2] was greater than 6.52 each time.

For the compound `CC(C)n1ccc(C(=O)Nc2cccc([C@H](C)Nc3cnc4cnn(C)c4n3)c2)n1` [Compound 156, (S)-1-isopropyl-N-(3-(1-((1-methyl-1H-pyrazolo[3,4-b]pyrazin-6-yl)amino)ethyl)phenyl)-1H-pyrazole-3-carboxamide], the pIC50 in assay [1] and in assay [2] was greater than 6.52 each time.

As for `C[C@H](Nc1cnc2cn[nH]c2n1)c1cccc(NC(=O)c2ccc(C(F)(F)F)nc2)c1` [Compound 99, (S)-N-(3-(1-((1H-pyrazolo[3,4 b]pyrazin-6-yl)amino)ethyl)phenyl)-6-(trifluoromethyl) nicotinamide], the pIC50 in assay [1] and in assay [2] was greater than 6.52 each time.

As for `Cc1cncc(C(=O)Nc2cccc([C@H](C)Nc3cnc4ccc(Br)cc4n3)c2)c1` [Compound 39, (S)-N-(3-(1-((7-bromoquinoxalin-2-yl)amino)ethyl)phenyl)-5-methylnicotinamide], the pIC50 in assay [1] and in assay [2] was greater than 6.52 throughout.

Consider `CCn1cc2ncc(N[C@@H](C)c3cccc(NC(=O)c4cnc(C(N)=O)s4)c3)nc2n1` [Compound 365, (S)-N5-(3-(1-((2-ethyl-2H-pyrazolo[3,4-b]pyrazin-6-yl)amino)ethyl)phenyl)thiazole-2,5-dicarboxamide], for which the pIC50 in assay [1] and in assay [2] was greater than 6.52 each time.

`CCOc1ncc(C(=O)Nc2cccc([C@H](C)Nc3cnc4cn(CC)nc4n3)c2)s1` [Compound 362, (S)-2-ethoxy-N-(3-(1-((2-ethyl-2H-pyrazolo[3,4-b]pyrazin-6-yl)amino)ethyl)phenyl)thiazole-5-carboxamide]: the pIC50 is greater than 6.52 in assay [1] and 6.00 to 6.52 in assay [2].

Consider `CCn1cc2ncc(N[C@@H](C)c3cc(NC(=O)Cc4ccc(C(F)(F)F)cn4)ccc3F)nc2n1` [Compound 654, (S)-N-(3-(1-((2-ethyl-2H-pyrazolo[3,4-b]pyrazin-6-yl)amino)ethyl)-4-fluorophenyl)-2-(5-(trifluoromethyl)pyridin-2-yl) acetamide], for which the pIC50 in assay [1] is greater than 6.52; in assay [2] it was no more than 6.00.

For the compound `Cc1cncc(C(=O)Nc2cccc([C@H](C)Nc3cnc4ncccc4n3)c2)c1` [Compound 26, (S)-5-methyl-N-(3-(1-(pyrido[2,3-b]pyrazin-2-ylamino)ethyl)phenyl) nicotinamide], the pIC50 in assay [1] is 6.00 to 6.52; in assay [2], no more than 6.00.

Regarding `CCn1cc2ncc(N[C@@H](C)c3cccc(NC(=O)c4ccc(CN5CCC(F)(F)CC5)c(C)c4)c3)nc2n1` [Compound 476, (S)-4-((4,4-difluoropiperidin-1-yl)methyl)-N-(3-(1-((2-ethyl-2H-pyrazolo[3,4-b]pyrazin-6-yl)amino)ethyl)phenyl)-3-methylbenzamide], the pIC50 is greater than 6.52 in assay [1] and 6.00 to 6.52 in assay [2].

`CCn1cc2ncc(N[C@@H](C)c3cccc(NC(=O)c4cc(Cl)c(Cl)s4)c3)nc2n1` [Compound 357, (S)-4,5-dichloro-N-(3-(1-((2-ethyl-2H-pyrazolo[3,4-b]pyrazin-6-yl)amino)ethyl)phenyl)thiophene-2-carboxamide]: the pIC50 in assay [1] and in assay [2] was greater than 6.52 throughout.

As to `CCn1cc2ncc(N[C@@H](C)c3cccc(NC(=O)c4ccc(CN5CCOCC5)cc4)c3)nc2n1` [Compound 374, (S)-N-(3-(1-((2-ethyl-2H-pyrazolo[3,4-b]pyrazin-6-yl)amino)ethyl)phenyl)-4-(morpholinomethyl)benzamide], the pIC50 in assay [1] and in assay [2] was 6.00 to 6.52 throughout.

Consider `CCn1cc2ncc(N[C@@H](C)c3cc(NC(=O)c4ccc(CN5CCCC5)c(C)c4)ccc3F)nc2n1` [Compound 470, (S)-N-(3-(1-((2-ethyl-2H-pyrazolo[3,4-b]pyrazin-6-yl)amino)ethyl)-4-fluorophenyl)-3-methyl-4-(pyrrolidin-1-ylmethyl)benzamide], for which the pIC50 in assay [1] and in assay [2] was greater than 6.52 throughout.

The record behind these values is patent publication US20230102554A1 (GB002, INC., priority 2019, published 2023).
